Structures are written as SMILES.

For 64 molecules, melting point results are on record in a melting point compilation (Tetko et al.; mined from patent text by program, amines drawn as free bases though some values may be those of a salt).

Consider `Cc1nc(-c2ccc(OCc3cccnc3)cc2)no1`, for which the melting point (usually the temperature of the solid-liquid transition) lay in the range of 55 to 56 °C.

With `CC(=O)COc1ccc(Cl)cc1C(=O)O`, the melting point was in the range of 90 to 91 °C. Consider `Nc1ccccc1C(=O)Nc1cccc2cc(Br)cnc12`, for which the melting point was 147 to 150 °C.

As for `CN1C(=O)C(=Cc2nc(C(C)(C)C)c(O)c(C(C)(C)C)n2)SC1=S`, the melting point lay in the range of 226 to 228 °C.

Consider `CNC(=O)N(O)CCOc1ccc2c(c1)CCN(CCCc1ccccc1)C2=O`, for which the melting point fell in the range of 138 to 139 °C.

`Cc1ccc(S(=O)(=O)N2CCCC(S(=O)(=O)c3ccc(F)cc3)C2)cc1` (centres undefined) came in with a melting point of 186 °C. Consider `CN(CC1(c2ccccc2)CC(O)=CC(=O)O1)c1ccccc1` (centres undefined), for which the melting point lay in the range of 118 to 120 °C.

The molecule `Cn1cncc1C(O)c1ccc2nc(Cl)nc(-c3cccc(Cl)c3)c2c1` (centres undefined) had a melting point of 140 °C. `C#Cc1ccc2c(c1)C(c1ccccn1)=NCc1c(C(=O)N(C)C)ncn1-2` yielded a melting point of 193 to 194 °C. To `Cn1ncc(C(=O)C2CC2)c1S(N)(=O)=O` belongs 125 to 127 °C. The molecule `N#Cc1ccc2c(c1)C=C(C(=O)O)C(C(F)(F)F)N2` (centres undefined) registered a melting point of 238 to 240 °C. In the case of `NC(=O)c1c(Cl)c(-c2ccccc2)n2c1CN(C(=O)c1ccco1)CC2` it was 238 to 239 °C; in that of `COC(=O)/C(=C/C=C/c1cn(C(C)=O)c2ccccc12)OC`, 107 to 108 °C; in that of `CC(=O)c1cc(Cl)c(N=C=O)c(Cl)c1`, 138 to 140 °C. In turn, `O=C(O)c1ccn(C2=CC3=C(CC2)CCc2[nH]c(=O)c(=O)n(O)c23)c1` returned a melting point above 300 °C. In turn, `FC(F)(F)c1cc(OCc2ccc(-c3ccccc3-c3nnn[nH]3)cc2)c2c(n1)CCCC2` had a melting point of 218 to 219 °C. To `CC(CC(=O)c1ccccc1)C(=O)N[C@@H](CS)C(=O)O` (some centres undefined) belongs 78 to 105 °C; to `COC(=O)c1cncn1C1c2ccccc2CSC1(C)C` (centres undefined), 108 to 109 °C. `NNC(=O)c1ccc2occ(-c3cc(F)ccc3F)c2c1` had a melting point of 198 to 199 °C. In the case of `Cc1ccc2[nH]c(-c3ccc(S(C)(=O)=O)cc3)c(-c3ccccc3)c2c1` it was 245 to 247 °C. In turn, `N#Cc1cc([N+](=O)[O-])ccc1Sc1ccccc1` came in with a melting point of 82 to 84 °C. The molecule `CN1CC(CCCl)Oc2cc3ccccc3cc2C1=O` (centres undefined) registered a melting point of 101 to 102 °C.

For `Clc1ccc2nc(Cl)oc2c1`, the melting point was in the range of 40 to 44 °C. Regarding `COc1ccccc1N(CCN1CCC(C(=O)c2ccc(F)cc2)CC1)S(=O)(=O)c1cccnc1`, the melting point fell in the range of 126 to 128 °C.

The molecule `CNC(=S)C1(c2cnccn2)CCCS1` (centres undefined) registered a melting point of 127 °C. Consider `O=C(O)CCc1ccc(Oc2ccc3c(c2)S(=O)(=O)NC2CCCN32)cc1` (centres undefined), for which the melting point lay in the range of 178 to 183 °C. For the molecule `CCCOc1ccc(NC2=C(C(=O)OCC)CCC2)cc1C1=NC(=O)C2=NN=NC2=N1`, the melting point is 164 to 165 °C. `CN(CC(=O)Nc1ccc2[nH]ncc2c1)Cc1ccccc1` registered a melting point of 159 to 160 °C. In the case of `Cc1nn(Cc2ccccc2)c2c1c(=O)n(-c1ccccc1)c1ncccc21` it was 274 to 276 °C. To `CN1CS(=O)c2cccc(Br)c21` (centres undefined) belongs 138 to 140 °C; to `CC#CCOc1ccc(S(=O)(=O)C(CCCCCC#N)C(=O)NO)cc1` (centres undefined), 120 °C. For `COC(=O)C(C)Oc1ccc(Oc2ccc(C(F)(F)F)cc2)cc1` (centres undefined), the melting point worked out at 142 °C. `COC(=O)c1cc(-c2nc(COc3ccc(COc4nn(-c5ccccc5)cc4C=O)cc3OC)c(C)o2)ccc1OS(C)(=O)=O` yielded a melting point of 136 to 137 °C. In turn, `N#CCCC(=O)c1ccncc1` showed a melting point of 53.5 to 55 °C. With `O=[N+]([O-])c1ccc(I)c(C(F)(F)F)c1`, the melting point fell in the range of 81 to 82 °C. Take `Nc1nc2cccnc2c2c1nc(O)n2Cc1ccccc1`: the melting point was above 250 °C. Molecule `NCCN1CCC(Nc2nc3ccccc3n2Cc2ccccn2)C1` (centres undefined) had a melting point of 130 °C. `COc1cc(C2NCCS2)ccc1O` (centres undefined): the melting point lay within 158 to 161 °C.

In the case of `CCOC(=O)C1=C(N)NC(N)=C(C(=O)OCC)C1c1ccccc1C`, the melting point stood at 158 °C. The molecule `COC(=O)C(O)Cc1ccc(O)cc1` (centres undefined) returned a melting point of 42 to 43 °C. Regarding `CCCCCCCCCN1C(=O)C=CC1=O`, the melting point is 45 to 47 °C. As for `COc1cc(C(C)C)c2c(c1)S(=O)(=O)N(COc1cc(C(F)(F)F)nn1-c1ccc([N+](=O)[O-])cc1)C2=O`, the melting point fell in the range of 185 to 187 °C. In the case of `C[C@@H](n1cnc2cc(C#N)ccc2c1=O)[C@](O)(Cn1cncn1)c1ccc(F)cc1F`, the melting point fell in the range of 168 to 169 °C. Take `CC(C)c1nn(-c2ccc(C(F)(F)F)nn2)cc1CCCO`: the melting point is 113 to 114 °C. To `CN1CCN(C2=C3N=c4cc(Cl)ccc4=C3Oc3ccccc3N2C)CC1` belongs 187 to 188 °C. The molecule `CC(C)Cc1nc2ccc(Cl)cc2c(-c2ccccc2)c1CO` had a melting point of 130 to 131 °C. For `O=C(C=Cc1ccc(S(=O)(=O)Nc2ccccc2)cc1)NO`, the melting point lay in the range of 176 to 178 °C. In the case of `O=C(O)c1cnc2ccc(-c3ccc(C(F)(F)F)cc3)cn12` it was 220 °C; in that of `COc1ccc(C2=NN(CC=Cc3ccccc3)C(=O)C3CCCCC23)cc1OC` (centres undefined), 76 to 79 °C. Molecule `CCCCS(=O)(=O)NC(=O)c1ccc2nc(C)n(Cc3ccc(-c4ccccn4)cc3)c2c1` gave a melting point of 292 to 298 °C. For `CC(CO)N1CCN(c2ccccn2)CC1` (centres undefined), the melting point lay in the range of 62 to 64 °C.

Regarding `O=S1(=O)N(CCCN2CC=C(c3c[nH]c4ccc(F)cc34)CC2)c2cccc3c2N1CCC3`, the melting point is 178 °C.

`CN(CCNc1ccc2nc(NC(=O)c3ccc(C(C)(C)C)cc3)cn2n1)C(=O)OC(C)(C)C` showed a melting point of 200 to 201 °C.

In turn, `Cc1cnc2n1-c1cc(Cl)c(Cl)cc1N=C(c1ccc(-n3c(C)nnc3C)cc1)C2` gave a melting point of 165 °C. As to `Cc1ccccc1-c1noc2c3c(c(Cl)cc12)OC(C(=O)O)C3` (centres undefined), the melting point lay within 192 to 195 °C. For `CCOC(=O)c1ccc(NC(=O)c2c(OC)cccc2OC)cc1`, the melting point was in the range of 183 to 185 °C.

In turn, `Cc1c(C(=O)c2ccc(F)cc2)cccc1[N+](=O)[O-]` showed a melting point of 64 °C. Molecule `COc1ccc(-c2c(Cl)c(CN3C(=O)CCC3=O)nc3sc4c(c23)CC(C)(C)C(O)C4)cc1` (centres undefined) displayed a melting point of 227 to 229 °C. Regarding `CC1c2cc(Cl)ccc2-c2ccc(Cl)cc21`, the melting point was in the range of 110 to 112 °C. `COc1ccc(S(=O)(=O)C2(C(=O)O)CCN(Cc3ccc(-c4ccccc4)cc3)CC2)cc1` had a melting point of 168 °C. The molecule `COC(=O)C1CSC(=O)C1` (centres undefined) returned a melting point of 33 to 35 °C. `COC(=O)[C@@H]1CN(CCCCN2C(=O)c3cc(Cl)ccc3S2(=O)=O)CC[C@H]1n1c(=O)[nH]c2ccccc21` (relative stereo) came in with a melting point of 170 to 176 °C. Consider `CN(C)CCCC(=O)N1CCC(c2[nH]nc3c2C(=O)c2c(NC(=O)NN4CCOCC4)cccc2-3)CC1`, for which the melting point lay within 145 to 147 °C. `CCCN/C(C)=C(/C#N)C(N)=S` registered a melting point of 149 to 151 °C.
